Results: patent US20250326772A1, “MRGPRX2 ANTAGONISTS, PHARMACEUTICAL COMPOSITION INCLUDING MRGPRX2 ANTAGONIST, AND METHOD OF TREATING MRGPRX2-MEDIATED DISEASE OR DISORDER” (KYORIN PHARMACEUTICAL CO., LTD., priority 2024, published 2025)

Biological target: T1, MRGPRX2 (Homo sapiens, UniProt Q96LB1)
T1 sequence (Q96LB1 1-330): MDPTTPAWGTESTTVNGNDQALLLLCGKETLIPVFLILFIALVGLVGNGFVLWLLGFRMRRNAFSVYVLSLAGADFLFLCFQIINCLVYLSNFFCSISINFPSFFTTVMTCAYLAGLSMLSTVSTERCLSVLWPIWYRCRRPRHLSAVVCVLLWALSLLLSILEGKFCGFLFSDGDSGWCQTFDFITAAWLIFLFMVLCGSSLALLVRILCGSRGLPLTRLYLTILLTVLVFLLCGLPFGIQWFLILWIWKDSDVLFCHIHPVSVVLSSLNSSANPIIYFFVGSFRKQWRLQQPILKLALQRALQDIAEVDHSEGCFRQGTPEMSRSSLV
Test: MRGPRX2 reporter cell assay (NFAT-RE luciferase, Substance P stimulation)
Format: cell-based
Conditions: U2OS cells stably transfected with MRGPRX2 and NFAT-RE luciferase reporter; Substance P at EC80
Experimental: MRGPRX2 Reporter Cell Assays U2OS cells (ATCC, Manassas, VA) were stably transfected with MRGPRX2 expression clones (GeneCopoeia, Rockville, MD) and the pGL4.30 [luc2P/NFAT-RE/Hygro] reporter plasmid (Promega, Madison, WI). Clonal cells were maintained in Growth Media (McCoy's 5A, 10% FBS, 495 μg/ml hygromycin, 2 μg/ml puromycin, 100 units/ml penicillin, and 100 ug/ml streptomycin). The day before assay, cells were plated to white 384-well microplates at 3000 (MRGPRX2) cells/well in 10 ul Assay Media (McCoy's 5A, 2% charcoal dextran stripped FBS, 100 units/ml penicillin, and 100 ug/ml streptomycin) (Gibco, Thermo Fisher) and allowed to adhere overnight. The following day, serially diluted compound stocks were added directly to the cells (final DMSO concentration of 0.5%) and pre-incubated for 30 minutes at 37° C., 5% CO2. The final concentration of Substance P (Tocris, Minneapolis, MN, or PEPTIDE INSTITUTE, Osaka, Japan) corresponding to EC80 was added to stimulate the (MRGPRX2) cells. Cells were returned to the incubator for 6 hrs, after which 5 ul of ONE-GLO substrate (Promega) was added. Luminescence was read within 15 minutes (BioTek, Winooski, VT or infinite M1000Pro, Tecan Japan, Kanagawa, Japan). Percent inhibition for each test compound was calculated using the formula: […] where: • A=the luminescence count of the “test compound” well • B=the median luminescence count of the “Vehicle (0.5% DMSO)” wells • C═the median luminescence count of the “Vehicle (0.5% DMSO)+5 uM of substance P” wells The mean percent inhibition of each concentration of “test compound” was used to generate dose-response curves. IC50 values were calculated using a four-parameter logistic fit to the data using GraphPad Prism software. • +++: […]

IC50 | SMILES
2.9 nM | Cn1cc(-c2c(-c3c(C(F)F)nn4c3OCCC4)[nH]c3ncccc23)c(OC(F)F)n1 [EX. 272]

Same assay, conditions: U2OS cells stably transfected with MRGPRX2 and NFAT-RE luciferase reporter; Substance P at EC80; class symbols

IC50 | SMILES
< 10 nM | [2H]C([2H])([2H])Oc1ccc(C#N)c(-c2c(-c3c(C)nn4cccnc34)[nH]c3ncccc23)c1 [EX. 236]
< 10 nM | [2H]C([2H])([2H])Oc1ccc(C#N)c(-c2c(-c3c(C)nn4c3OCCC4)[nH]c3ncccc23)c1 [EX. 239]
< 10 nM | COc1ccc(C#N)c(-c2c(-c3c(C(F)F)nn4c3OCCC4)[nH]c3ncccc23)c1 [EX. 242]
< 10 nM | COc1ccc(C#N)c(-c2c(-c3c(C)nn4cccnc34)[nH]c3ncccc23)c1 [EX. 245]
< 10 nM | [2H]C([2H])([2H])Oc1ccc(C#N)c(-c2c(-c3c(C(F)F)nn4c3OCCC4)[nH]c3ncccc23)c1 [EX. 247]
< 10 nM | COc1ccc(C#N)c(-c2c(-c3c(C(F)F)nn4c3OCC(NC(=O)OC(C)(C)C)C4)[nH]c3ncccc23)c1 (centres unmarked) [EX. 257]
< 10 nM | Cn1cc(-c2c(-c3c(C(F)F)nn4c3OCCC4)[nH]c3ncccc23)c(OC(F)F)n1 [EX. 272]
100 to 1000 nM | COc1ccc(F)cc1-c1[nH]c2ncccc2c1C1=CCCCC1 [EX. 301, 3-(cyclohex-1-en-1-yl)-2-(5-fluoro-2-methoxyphenyl)-1H-pyrrolo[2,3-b]pyridine]
< 10 nM | COc1ccccc1-c1[nH]c2ncccc2c1-c1ccccc1C#N [EX. 307]
< 10 nM | COc1ccccc1-c1[nH]c2ncccc2c1-c1cc(C)ccc1C#N [EX. 316]

Second part, the compound before the results:

SMILES | IC50
[2H]C([2H])([2H])Oc1ccc(C#N)c(-c2c(-c3c(C)nn4c3OCC4)[nH]c3ncccc23)c1 [EX. 238] | < 10 nM
Cn1nc(-c2[nH]c3ncccc3c2-c2ccccc2C#N)c(C(F)(F)F)n1 [EX. 241] | < 10 nM
COc1ccc(C#N)c(-c2c(-c3c(C(F)F)nn4c3OCC4)[nH]c3ncccc23)c1 [EX. 243] | < 10 nM
COc1ccc(C#N)c(-c2c(-c3c(C)nn4c(C)ccnc34)[nH]c3ncccc23)c1 [EX. 254] | < 10 nM
COc1ccc(C#N)c(-c2c(-c3c(C)nn4c3OCC(NC(=O)OC(C)(C)C)C4)[nH]c3ncccc23)c1 (centres unmarked) [EX. 256] | < 10 nM
N#Cc1ccccc1-c1c(-c2n[nH]cc2C(F)(F)F)[nH]c2ncccc12 [EX. 264] | < 10 nM
[2H]C([2H])([2H])Oc1ccc(C#N)c(-c2c(-c3c(C)nn4cc(C)cnc34)[nH]c3ncccc23)c1 [EX. 266] | < 10 nM
Cn1cc(-c2[nH]c3ncccc3c2-c2ccccc2C#N)c(CF)n1 [EX. 270] | < 10 nM
N#Cc1ccccc1-c1c(-c2c(CF)nn3c2OCCC3)[nH]c2ncccc12 [EX. 271] | < 10 nM
COc1ccc(C#N)c(-c2c(-c3nn(C)cc3C(F)F)[nH]c3ncccc23)c1 [EX. 281] | < 10 nM
Cc1cc(-c2c(-c3cn(C)nc3C(F)F)[nH]c3ncccc23)c(C#N)s1 [EX. 287] | < 10 nM
Cn1cc(-c2c(-c3cn(C)nc3C(F)F)[nH]c3ncccc23)c(OC(F)F)n1 [EX. 291] | 10 to 100 nM
COc1ccc(F)cc1-c1[nH]c2ncccc2c1-c1cn(C)nc1C(F)F [EX. 292] | 100 to 1000 nM
Cc1ccc(F)c(-c2c(-c3cn(C)nc3C(F)(F)F)[nH]c3ncccc23)c1 [EX. 299] | < 10 nM
Cn1cc(-c2[nH]c3ncccc3c2-c2cc(F)ccc2C#N)c(C(F)F)n1 [EX. 300] | < 10 nM
COc1ccccc1-c1[nH]c2ncccc2c1-c1cc(C)ccc1F [EX. 314] | < 10 nM
COc1ccc(F)c(-c2c(-c3cc(F)ccc3OC)[nH]c3ncccc23)c1 [EX. 323] | < 10 nM
COc1ccc(F)cc1-c1[nH]c2ncccc2c1-c1cc(C)ccc1C#N [EX. 326] | < 10 nM
Cc1ccc(F)c(-c2c(-c3cc(F)ccc3O)[nH]c3ncccc23)c1 [EX. 344] | < 10 nM
COc1ccc(F)c(-c2c(-c3cc(F)ccc3OC)[nH]c3ncccc23)c1 [EX. 345] | < 10 nM
[2H]C([2H])([2H])Oc1ccc(F)cc1-c1[nH]c2ncccc2c1-c1ccccc1C#N [EX. 346] | < 10 nM
